Data taken from ChEMBL document CHEMBL3425466, “Light-switched inhibitors of protein tyrosine phosphatase PTP1B based on phosphonocarbonyl phenylalanine as photoactive phosphotyrosine mimetic” (Bioorg Med Chem, 2015).
The source made the active and inactive calls. The rule behind the calls is not given here. Numbered stars: 1 amine (or outer) side, 2 acyl side, 3 side chain; on linkers, the order of the positions; unused ones are H or OH. Square brackets hold non-standard residues; d marks the D form. Peptide text beside a SMILES is read from it. X1 = O=C(c1ccc(C[C@H](N[*:1])C(=O)[*:2])cc1)P(=O)(O)O

What was measured:
[1] = Photodimerization of the compound exposed to UV irradiation in presence of DTT; assay type: physicochemical
[2] = Photodimerization of the compound exposed to UV irradiation in presence of TEMPO radical; assay type: physicochemical
[3] = target: T1, Tyrosine-protein phosphatase non-receptor type 1 (Homo sapiens, UniProt P18031); experiment: Inhibition of PTP1B catalytic domain (1 to 321 amino acids) (unknown origin) expressed in Escherichia coli Rosetta (DE3) incubated for 30 mins in absence of UV irradiation with 365 nm for 45 mins by pNPP assay
T1 sequence (P18031 whole entry): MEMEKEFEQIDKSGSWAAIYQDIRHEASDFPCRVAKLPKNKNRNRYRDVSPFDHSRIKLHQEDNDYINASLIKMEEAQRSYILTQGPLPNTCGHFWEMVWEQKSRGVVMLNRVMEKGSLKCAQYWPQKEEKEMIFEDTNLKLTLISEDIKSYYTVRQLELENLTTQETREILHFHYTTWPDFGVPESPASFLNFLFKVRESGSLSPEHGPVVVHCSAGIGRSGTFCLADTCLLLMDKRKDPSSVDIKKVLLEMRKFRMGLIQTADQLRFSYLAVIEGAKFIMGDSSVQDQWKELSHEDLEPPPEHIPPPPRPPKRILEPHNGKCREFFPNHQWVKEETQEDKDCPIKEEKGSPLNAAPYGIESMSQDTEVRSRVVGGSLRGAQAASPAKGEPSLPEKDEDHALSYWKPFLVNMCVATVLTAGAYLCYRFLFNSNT

[4] = target: T1, Tyrosine-protein phosphatase non-receptor type 1; experiment: Inhibition of PTP1B catalytic domain (1 to 321 amino acids) (unknown origin) expressed in Escherichia coli Rosetta (DE3) incubated for 30 mins followed by UV irradiation with 365 nm for 45 mins by pNPP assay
[5] = target: T1, Tyrosine-protein phosphatase non-receptor type 1; experiment: Inhibition of PTP1B catalytic domain (1 to 321 amino acids) (unknown origin) expressed in Escherichia coli Rosetta (DE3) incubated for 30 mins in absence of UV irradiation with 365 nm for 45 mins and in presence of 1 mM DTT by pNPP assay
[6] = target: T1, Tyrosine-protein phosphatase non-receptor type 1; experiment: Inhibition of PTP1B catalytic domain (1 to 321 amino acids) (unknown origin) expressed in Escherichia coli Rosetta (DE3) incubated for 30 mins followed by UV irradiation with 365 nm for 45 mins in presence of 1 mM DTT by pNPP assay
[7] = target: T2, Tyrosine-protein phosphatase non-receptor type 1 (Homo sapiens) (UniProt P18031); conditions: 35 uM
T2 sequence (whole entry): T1 sequence (P18031 whole entry)
Description: Inhibition of PTP1B catalytic domain (1 to 321 amino acids) (unknown origin) expressed in Escherichia coli Rosetta (DE3) at 35 uM incubated for 30 mins followed by UV irradiation with 365 nm for 45 mins in presence of 100 uM DTT by pNPP assay

[8] = target: T2, Tyrosine-protein phosphatase non-receptor type 1 (Homo sapiens); conditions: 10 uM
Description: Inhibition of PTP1B catalytic domain (1 to 321 amino acids) (unknown origin) expressed in Escherichia coli Rosetta (DE3) at 10 uM incubated for 30 mins followed by UV irradiation with 365 nm for 45 mins by pNPP assay

[9] = target: T2, Tyrosine-protein phosphatase non-receptor type 1 (Homo sapiens); conditions: 10 uM; remark: listed apart in the source
Description: Inhibition of PTP1B catalytic domain (1 to 321 amino acids) (unknown origin) expressed in Escherichia coli Rosetta (DE3) at 10 uM incubated for 30 mins followed by UV irradiation with 365 nm for 45 mins in presence of 1 mM DTT by pNPP assay

Row | Structure (SMILES) | Activity [1] | Activity [2] | Ki [3] | Ki [4] | Ki [5] | Ki [6] | inhibition [7] | inhibition [8] | inhibition [9]
1 | Cc1ccc(C(=O)P(=O)(O)O)cc1 | Not Active | Not Active |  |  |  |  |  |  | 
2 | CC(=O)N[C@@H](CC(=O)O)C(=O)N[C@@H](C)C(=O)N[C@@H](CC(=O)O)C(=O)N[C@@H](CCC(=O)O)C(=O)N[C@@H](Cc1ccc(C(=O)P(=O)(O)O)cc1)C(=O)N[C@@H](CC(C)C)C(N)=O (Ac-DADE[X1]L-NH2) |  |  | 30 µM | 0.39 µM | 17.3 µM | 12.9 µM | inactive |  | 
3 | CC[C@H](C)[C@H](NC(=O)[C@H](Cc1ccc(C(=O)P(=O)(O)O)cc1)NC(=O)[C@H](CC(N)=O)NC(C)=O)C(=O)N[C@@H](CC(=O)O)C(=O)N[C@@H](CC(C)C)C(=O)N[C@@H](CC(=O)O)C(N)=O (Ac-N[X1]IDLD-NH2) |  |  | 48.8 µM | 0.41 µM |  |  |  | Active | inactive
